Reference: patent US12287324B2, “Companion diagnostics for NSAIDS and donepezil for treating specific subpopulations of patients suffering from Alzheimer's disease” (University of North Texas Health Science Center at Fort …, priority 2018, dated 2025)
Entries after “also recorded” stand apart in the source; their conditions may differ.

Tested on: Individuals with a diagnosis of probable AD
Test: ADCS anti-inflammatory clinical trial, 1-year exposure; MMSE and CDR-SB outcomes by treatment arm and proinflammatory endophenotype
Type: in vivo, human
Conditions: for MMSE Change, mean (SD): change = screening − 12-month, positive = decline; for participants with mild decline in MMSE (number) / participants with mild decline in MMSE (percent of arm): MMSE decline of 1-2 points over 12 mo; for participants who declined 3 or more points on MMSE (number) / participants who declined 3 or more points on MMSE (percent of arm): over 12-months (adverse responders); for participants with improvement in MMSE scores over 12-months (number) / participants with improvement in MMSE scores over 12-months (percent of arm): responders = improved MMSE >=1 point over 12 mo
Source text: Data source. Banked plasma samples from the Alzheimer's Disease Cooperative Studies (ADCS) anti-inflammatory clinical trial were used. […] This was a multicenter, randomized, double-blind, placebo-controlled parallel group trial with 1-year exposure to study medications across forty ambulatory treatment centers affiliated with the ADCS. […] Inclusion criteria were as follows: age 50 or older, MMSE score of 13-26 and diagnosis of probable AD. Stable use of cholinesterase inhibitors was allowed.
Statistical Analyses. Biomarker data were transformed using the Box-Cox transformation per previously published protocols, relevant portions incorporated herein by reference. Support vector machine (SVM) analyses were utilized to build the proteomic profiles simultaneously classifying all outcome groups in R per the inventors previously published methods, relevant portions incorporated herein by reference. SVM analyses are capable of simultaneously taking into account large volume data to generate an overall profile (e.g., over and under-expression of select proteins) that most accurately classifies multiple outcomes rather than only binary outcomes. MMSE change scores were utilized as the outcome variables for the study (i.e. MMSE screening−MMSE 12-month follow-up=MMSE change). Participants were classified into four groups based on change in MMSE scores over 12-months: responders (improved MMSE scores of >=1 point over 12 mo), stable (no change in MMSE over 12 months), non-responders (MMSE decline of 1-2 points over 12 mo) or adverse responders (MMSE decline of 3 or more points over 12 mo). To build inflammatory profiles of treatment response, group status (i.e. treatment response) was utilized as the outcome variable in SVM models with pre-randomization inflammatory proteins as the predictor variable. In order to determine if the proinflammatory profile of treatment response was drug-specific, analyses were conducted utilizing the total sample as well as within specific study treatment arms.
Next, MMSE change scores were dichotomized into improvement versus stable or decline over the 12-mo period.

[1] = High proinflammatory endophenotype (n = 8)
[2] = Low proinflammatory endophenotype (n = 7)
[3] = Middle proinflammatory endophenotype (n = 36)
[4] = within treatment arm, no change in MMSE over 12 months

With `COc1ccc2cc([C@H](C)C(=O)O)ccc2c1` [Naproxen, naproxen] the “CDR-SB 12 mo, mean (SD)” value [1] was 5.36 (3.0), the “CDR-SB Change, mean (SD)” value [1] was 0.7 (2.5) and the “MMSE 12 mo, mean (SD)” value [1] was 21.2 (5.3). The “MMSE Change, mean (SD)” value (High proinflammatory endophenotype (n = 8), p = 0.02 vs placebo high group) was −0.13 (3.1), the “CDR-SB 12 mo, mean (SD)” value [2] was 9.8 (4.1) and the “CDR-SB Change, mean (SD)” value [2] was −2.5 (2.1). For the same compound, the “MMSE 12 mo, mean (SD)” value [2] was 16.1 (5.5), the “MMSE Change, mean (SD)” value [2] was 1.5 (3.1) and the “CDR-SB 12 mo, mean (SD)” value [3] was 8.4 (4.1). For the same compound, the “CDR-SB Change, mean (SD)” value [3] was −2.6 (2.5), the “MMSE 12 mo, mean (SD)” value [3] was 16.5 (6.4) and the “MMSE Change, mean (SD)” value [3] was 4.2 (4.6). The “decline / change in MMSE scores over a 12 mo period as compared to the placebo group” value (high end of the proinflammatory endophenotype (CRP>1015.52 & TNFα>0.64), F[1,6]=8.2, p=0.03) was “significantly reduced decline; also recorded: significantly better”, the “average score of dichotomized MMSE change (improvement versus stable or decline)” value (high proinflammatory endophenotype, 12-mo period, Placebo group 0.25) was 0.63 and the “patients improved on MMSE (dichotomized)” value (high proinflammatory endophenotype, 12-mo period, Placebo group 25%) was 63%. The “improvement in MMSE scores over 12 months as compared to the Placebo group” value (high proinflammatory endophenotype, age, gender, education, APOE4 as covariates, F[1,6]=10.9, p=0.02) was “significant improvement”, the “cognitive course (MMSE) in the low end of the proinflammatory endophenotype” value (low end, CRP and TNFα cut-scores of the naproxen-specific algorithm) was “trend towards those in the low end to experience significant decline” and the “participants with mild decline in MMSE (number)” value (within treatment arm) was 10. For the same compound, the “participants with mild decline in MMSE (percent of arm)” value (within treatment arm) was 20%, the “participants who declined 3 or more points on MMSE (number)” value (within treatment arm) was 26 and the “participants who declined 3 or more points on MMSE (percent of arm)” value (within treatment arm) was 51%. For the same compound, the “participants with improvement in MMSE scores over 12-months (number)” value (within treatment arm) was 10 and the “participants with improvement in MMSE scores over 12-months (percent of arm)” value (within treatment arm) was 20%.

For `CS(=O)(=O)c1ccc(C2=C(c3ccccc3)C(=O)OC2)cc1` [Rofecoxib, rofecoxib], the “participants with mild decline in MMSE (number)” value (within treatment arm) was 14, the “participants with mild decline in MMSE (percent of arm)” value (within treatment arm) was 25% and the “participants who remained stable on MMSE (number)” value [4] was 8. The “participants who remained stable on MMSE (percent of arm)” value [4] was 15%, the “participants who declined 3 or more points on MMSE (number)” value (within treatment arm) was 23 and the “participants who declined 3 or more points on MMSE (percent of arm)” value (within treatment arm) was 42%. The “participants with improvement in MMSE scores over 12-months (number)” value (within treatment arm) was 9 and the “participants with improvement in MMSE scores over 12-months (percent of arm)” value (within treatment arm) was 16%.
